According to ChEMBL document CHEMBL1201862, “PubChem BioAssay data set” (2004):
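Cultured in 96-well plates, cells were exposed to test compound for 48 hours across five concentrations. GI50: concentration for 50% inhibition of growth.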 Calls of active or inactive are those of the source. Rule as the data show it: active = GI50 up to about 1.1 µM and inactive = higher.

Assays:
Assay in all cases: growth of human tumour cells (NCI), 48 h
HCT-116 = test system: HCT-116
RXF 393 = test system: RXF 393
K562 = test system: K562
SK-MEL-5 = test system: SK-MEL-5
HT-29 = test system: HT-29
Malme-3M = test system: Malme-3M
A498 = test system: A498
RPMI-8226 = test system: RPMI-8226
COLO 205 = test system: COLO 205
M14 = test system: M14
MDA-MB-231 = test system: MDA-MB-231
NCI-H522 = test system: NCI-H522
NCI/ADR-RES = test system: NCI/ADR-RES
HL-60 = test system: HL-60
UO-31 = test system: UO-31
U-251 = test system: U-251
MOLT-4 = test system: MOLT-4
SNB-19 = test system: SNB-19
CAKI-1 = test system: CAKI-1
IGROV-1 = test system: IGROV-1
NCI-H23 = test system: NCI-H23
MDA-MB-435 = test system: MDA-MB-435
PC-3 = test system: PC-3
SK-MEL-2 = test system: SK-MEL-2
OVCAR-8 = test system: OVCAR-8
MCF7 = test system: MCF7
SW-620 = test system: SW-620
DU-145 = test system: DU-145
ACHN = test system: ACHN
Hs-578T = test system: Hs-578T
HOP-92 = test system: HOP-92
SN12C = test system: SN12C
HCT-15 = test system: HCT-15
T47D = test system: T47D
CCRF-CEM = test system: CCRF-CEM
SR = test system: SR
EKVX = test system: EKVX
BT-549 = test system: BT-549
UACC-62 = test system: UACC-62
SK-MEL-28 = test system: SK-MEL-28
MDA-N = test system: MDA-N
SNB-75 = test system: SNB-75
SF-268 = test system: SF-268
KM12 = test system: KM12
LOX IMVI = test system: LOX IMVI
TK-10 = test system: TK-10
OVCAR-5 = test system: OVCAR-5
A549 = test system: A549
HCC 2998 = test system: HCC 2998
786-0 = test system: 786-0
SF-539 = test system: SF-539
NCI-H226 = test system: NCI-H226
NCI-H460 = test system: NCI-H460
OVCAR-4 = test system: OVCAR-4
UACC-257 = test system: UACC-257
SF-295 = test system: SF-295
SK-OV-3 = test system: SK-OV-3
HOP-62 = test system: HOP-62
OVCAR-3 = test system: OVCAR-3

For O=C1CSC2(CC(/C=C/c3ccccc3O)=NN2c2cccc(S(=O)(=O)O)c2)N1c1nc2ccccc2s1 (stereo not given), the GI50 (HCT-116) was 38.3 µM (inactive), the GI50 (RXF 393) was 54.6 µM (inactive) and the GI50 (K562) was 24.7 µM (inactive). For the same compound, the GI50 (SK-MEL-5) was 25.9 µM (inactive), the GI50 (HT-29) was 45.4 µM (inactive) and the GI50 (Malme-3M) was 41.9 µM (inactive). For the same compound, the GI50 (A498) was 42.9 µM (inactive), the GI50 (RPMI-8226) was 16 µM (inactive) and the GI50 (COLO 205) was 29.9 µM (inactive). The GI50 (M14) was 59.4 µM (inactive), the GI50 (MDA-MB-231) was 30.1 µM (inactive) and the GI50 (NCI-H522) was 15.7 µM (inactive). For the same compound, the GI50 (NCI/ADR-RES) was 26.7 µM (inactive), the GI50 (HL-60) was 15.7 µM (inactive) and the GI50 (UO-31) was 28.7 µM (inactive). The GI50 (U-251) was 33.9 µM (inactive), the GI50 (MOLT-4) was 20.3 µM (inactive) and the GI50 (SNB-19) was 53.7 µM (inactive). The GI50 (CAKI-1) was 28.3 µM (inactive), the GI50 (IGROV-1) was 23.3 µM (inactive) and the GI50 (NCI-H23) was 22.1 µM (inactive). The GI50 (MDA-MB-435) was 21.4 µM (inactive), the GI50 (PC-3) was 64 µM (inactive) and the GI50 (SK-MEL-2) was 34 µM (inactive). For the same compound, the GI50 (OVCAR-8) was 17.9 µM (inactive), the GI50 (MCF7) was 34.3 µM (inactive) and the GI50 (SW-620) was 37.3 µM (inactive). The GI50 (DU-145) was 30.5 µM (inactive), the GI50 (ACHN) was 32.1 µM (inactive) and the GI50 (Hs-578T) was 47.3 µM (inactive). For the same compound, the GI50 (HOP-92) was 25.6 µM (inactive), the GI50 (SN12C) was 24.8 µM (inactive) and the GI50 (HCT-15) was 20 µM. For the same compound, the GI50 (T47D) was 19.6 µM (inactive), the GI50 (CCRF-CEM) was 14.6 µM (inactive) and the GI50 (SR) was 18.4 µM (inactive). The GI50 (EKVX) was 48.1 µM (inactive), the GI50 (BT-549) was 24.9 µM (inactive) and the GI50 (UACC-62) was 29.4 µM (inactive). For the same compound, the GI50 (SK-MEL-28) was 56.5 µM (inactive), the GI50 (MDA-N) was 38.3 µM (inactive) and the GI50 (SNB-75) was 90.8 µM (inactive). The GI50 (SF-268) was 45 µM (inactive), the GI50 (KM12) was 30.6 µM (inactive) and the GI50 (LOX IMVI) was 17.3 µM (inactive). The GI50 (TK-10) was 20 µM (inactive), the GI50 (OVCAR-5) was 26.9 µM (inactive) and the GI50 (A549) was 50.4 µM (inactive). For the same compound, the GI50 (HCC 2998) was 21.9 µM (inactive), the GI50 (786-0) was 31.6 µM (inactive) and the GI50 (SF-539) was 16.3 µM (inactive). The GI50 (NCI-H226) was 22.2 µM (inactive), the GI50 (NCI-H460) was 34.1 µM (inactive) and the GI50 (OVCAR-4) was 22 µM (inactive). For the same compound, the GI50 (UACC-257) was 41.7 µM (inactive).
With CC(=O)OCC1=C(C(=O)O)N2C(=O)C(NC(=O)CSc3ccncc3)C2SC1 (stereo not given) the GI50 (HCT-116) was > 100 µM (inactive), the GI50 (SF-295) was > 100 µM (inactive) and the GI50 (RXF 393) was > 100 µM (inactive). For the same compound, the GI50 (K562) was > 100 µM (inactive), the GI50 (SK-MEL-5) was > 100 µM (inactive) and the GI50 (HT-29) was > 100 µM (inactive). For the same compound, the GI50 (Malme-3M) was > 100 µM (inactive), the GI50 (A498) was > 100 µM (inactive) and the GI50 (RPMI-8226) was > 100 µM (inactive). The GI50 (COLO 205) was > 100 µM (inactive), the GI50 (M14) was > 100 µM (inactive) and the GI50 (MDA-MB-231) was > 100 µM (inactive). The GI50 (NCI-H522) was > 100 µM (inactive), the GI50 (NCI/ADR-RES) was > 100 µM (inactive) and the GI50 (SK-OV-3) was > 100 µM (inactive). For the same compound, the GI50 (HL-60) was > 100 µM (inactive), the GI50 (UO-31) was > 100 µM (inactive) and the GI50 (U-251) was > 100 µM (inactive). The GI50 (MOLT-4) was > 100 µM (inactive), the GI50 (SNB-19) was > 100 µM (inactive) and the GI50 (CAKI-1) was > 100 µM (inactive). For the same compound, the GI50 (IGROV-1) was > 100 µM (inactive), the GI50 (HOP-62) was > 100 µM (inactive) and the GI50 (NCI-H23) was > 100 µM (inactive). The GI50 (MDA-MB-435) was > 100 µM (inactive), the GI50 (PC-3) was > 100 µM (inactive) and the GI50 (SK-MEL-2) was > 100 µM (inactive). The GI50 (OVCAR-8) was > 100 µM (inactive), the GI50 (MCF7) was > 100 µM (inactive) and the GI50 (SW-620) was > 100 µM (inactive). For the same compound, the GI50 (DU-145) was > 100 µM (inactive), the GI50 (ACHN) was > 100 µM (inactive) and the GI50 (Hs-578T) was > 100 µM (inactive). For the same compound, the GI50 (HOP-92) was > 100 µM (inactive), the GI50 (SN12C) was > 100 µM (inactive) and the GI50 (OVCAR-3) was > 100 µM (inactive). For the same compound, the GI50 (HCT-15) was greater than 100 µM, the GI50 (T47D) was > 100 µM (inactive) and the GI50 (CCRF-CEM) was > 100 µM (inactive). For the same compound, the GI50 (SR) was > 100 µM (inactive), the GI50 (EKVX) was > 100 µM (inactive) and the GI50 (BT-549) was > 100 µM (inactive). For the same compound, the GI50 (UACC-62) was > 100 µM (inactive), the GI50 (SK-MEL-28) was > 100 µM (inactive) and the GI50 (MDA-N) was > 100 µM (inactive). The GI50 (SNB-75) was > 100 µM (inactive), the GI50 (SF-268) was > 100 µM (inactive) and the GI50 (KM12) was > 100 µM (inactive). The GI50 (LOX IMVI) was > 100 µM (inactive), the GI50 (OVCAR-5) was > 100 µM (inactive) and the GI50 (A549) was > 100 µM (inactive). The GI50 (HCC 2998) was > 100 µM (inactive), the GI50 (786-0) was > 100 µM (inactive) and the GI50 (SF-539) was > 100 µM (inactive). The GI50 (NCI-H226) was > 100 µM (inactive), the GI50 (NCI-H460) was > 100 µM (inactive) and the GI50 (UACC-257) was > 100 µM (inactive).
CC(=O)c1csc2c1C(=O)c1ccccc1C2=O was tested, and the GI50 (HCT-116) was 2.24 µM (inactive), the GI50 (SF-295) was 1.55 µM (inactive) and the GI50 (RXF 393) was 10.2 µM (inactive). For the same compound, the GI50 (K562) was 3.92 µM (inactive), the GI50 (SK-MEL-5) was 0.18 µM (active) and the GI50 (HT-29) was 2.02 µM (inactive). For the same compound, the GI50 (Malme-3M) was 0.483 µM (active), the GI50 (A498) was 46.7 µM (inactive) and the GI50 (RPMI-8226) was 5.65 µM (inactive). The GI50 (COLO 205) was 1.74 µM (inactive), the GI50 (M14) was 1.07 µM (active) and the GI50 (MDA-MB-231) was 6.76 µM (inactive). For the same compound, the GI50 (NCI-H522) was 1.78 µM (inactive), the GI50 (NCI/ADR-RES) was 2.88 µM (inactive) and the GI50 (SK-OV-3) was 38.1 µM (inactive). The GI50 (HL-60) was 0.29 µM (active), the GI50 (UO-31) was 2.64 µM (inactive) and the GI50 (U-251) was 2.88 µM (inactive). The GI50 (SNB-19) was 2.12 µM (inactive), the GI50 (CAKI-1) was 3.99 µM (inactive) and the GI50 (IGROV-1) was 2.4 µM (inactive). For the same compound, the GI50 (HOP-62) was 1.97 µM (inactive), the GI50 (NCI-H23) was 1.26 µM (inactive) and the GI50 (MDA-MB-435) was 0.9 µM (active). The GI50 (PC-3) was 7.57 µM (inactive), the GI50 (SK-MEL-2) was 3.06 µM (inactive) and the GI50 (OVCAR-8) was 2.51 µM (inactive). For the same compound, the GI50 (MCF7) was 2.1 µM (inactive), the GI50 (SW-620) was 2.2 µM (inactive) and the GI50 (DU-145) was 1.67 µM (inactive). For the same compound, the GI50 (ACHN) was 2.02 µM (inactive), the GI50 (Hs-578T) was 2.43 µM (inactive) and the GI50 (HOP-92) was 30.5 µM (inactive). For the same compound, the GI50 (SN12C) was 2.25 µM (inactive), the GI50 (OVCAR-3) was 3.66 µM (inactive) and the GI50 (HCT-15) was 4.55 µM. For the same compound, the GI50 (T47D) was 21.7 µM (inactive), the GI50 (CCRF-CEM) was 1.56 µM (inactive) and the GI50 (SR) was 3.66 µM (inactive). For the same compound, the GI50 (EKVX) was 5.78 µM (inactive), the GI50 (BT-549) was 1.62 µM (inactive) and the GI50 (UACC-62) was 1.93 µM (inactive). The GI50 (SK-MEL-28) was 1.92 µM (inactive), the GI50 (MDA-N) was 1.22 µM (inactive) and the GI50 (SNB-75) was 1.73 µM (inactive). The GI50 (SF-268) was 2.78 µM (inactive), the GI50 (KM12) was 1.53 µM (inactive) and the GI50 (LOX IMVI) was 2.36 µM (inactive). For the same compound, the GI50 (TK-10) was 1.79 µM (inactive), the GI50 (OVCAR-5) was 2.35 µM (inactive) and the GI50 (A549) was 1.92 µM (inactive). The GI50 (HCC 2998) was 1.75 µM (inactive), the GI50 (786-0) was 2.07 µM (inactive) and the GI50 (SF-539) was 2.08 µM (inactive). The GI50 (NCI-H226) was 1.58 µM (inactive), the GI50 (NCI-H460) was 1.48 µM (inactive) and the GI50 (OVCAR-4) was 6.04 µM (inactive). For the same compound, the GI50 (UACC-257) was 1.46 µM (inactive).
